Laboratory results reported in the Deep4Chem optical property database.
Values belong to the compound of their own block, whether it stands above or below them.

Experiment: solvent given as SMILES

Structure (SMILES): COc1ccc(/C=C/C2=[O+][B-](F)(F)OC(/C=C/c3ccc(OC)cc3)=C2c2ccccc2)cc1
fluorescence lifetime (in CC#N): 1.5 ns
fluorescence lifetime (in CC(C)=O): 1.43 ns
fluorescence lifetime (in CCOC(C)=O): 1.18 ns
fluorescence lifetime (in CCOCC): 0.9 ns
fluorescence lifetime (in ClC(Cl)(Cl)Cl): 0.7 ns
fluorescence lifetime (in ClCCl): 1.35 ns

Structure (SMILES): C[Si](C)(C)C#Cc1cc2ccc3cc(C#C[Si](C)(C)C)cc4ccc(c1)c2c34
fluorescence lifetime (in Cc1ccccc1): 99 ns

fluorescence lifetime (in C1COCCO1): 1.09 ns
fluorescence lifetime (in CC#N): 2.03 ns
fluorescence lifetime (in CCCCCC): 0.37 ns
fluorescence lifetime (in CCCCCCC): 0.38 ns
fluorescence lifetime (in CCCO): 0.95 ns
fluorescence lifetime (in CCOC(C)=O): 1 ns
fluorescence lifetime (in CS(C)=O): 2.51 ns
fluorescence lifetime (in ClC(Cl)Cl): 0.89 ns
fluorescence lifetime (in ClCCl): 1.25 ns
Structure (SMILES): COc1ccc(C#Cc2ccc(C#N)cc2)cc1OC

Structure (SMILES): O=C1c2ccccc2-c2ccc(N3CCN(c4ccccc4)CC3)c3cccc1c23
fluorescence lifetime (in C1CCCCC1): 7.85 ns
fluorescence lifetime (in C1CCOC1): 2.59 ns
fluorescence lifetime (in C1COCCO1): 8.98 ns
fluorescence lifetime (in CC1COC(=O)O1): 0.09 ns
fluorescence lifetime (in CC#N): 0.03 ns
fluorescence lifetime (in CC(C)=O): 0.09 ns
fluorescence lifetime (in CCCCCCCCO): 0.29 ns
fluorescence lifetime (in CCCCCO): 0.22 ns
fluorescence lifetime (in CCCCO): 0.16 ns
fluorescence lifetime (in CCCO): 0.22 ns
fluorescence lifetime (in CCO): 0.07 ns
fluorescence lifetime (in CCOC(C)=O): 2 ns
fluorescence lifetime (in CN(C)C=O): 0.06 ns
fluorescence lifetime (in CO): 0.03 ns
fluorescence lifetime (in CS(C)=O): 0.06 ns
fluorescence lifetime (in Cc1ccccc1): 9.06 ns
fluorescence lifetime (in ClC(Cl)Cl): 8.88 ns

fluorescence lifetime (in ClCCl): 3.23 ns
Structure (SMILES): CCCCC(CC)Cn1c2cc(-c3ccc(N(c4ccccc4)c4ccccc4)cc3)c(C#N)cc2c2cc(C#N)c(-c3ccc(N(c4ccccc4)c4ccccc4)cc3)cc21 (stereo not given)

Structure (SMILES): CC(C)(C)c1ccc2c(c1)B1c3cc(C(C)(C)C)ccc3Oc3cc(-n4c5ccccc5c5c6c(c7ccccc7n6-c6ccccc6)c6c(c7ccccc7n6-c6ccccc6)c54)cc(c31)O2
fluorescence lifetime (in Cc1ccccc1): 19.6 ns

Structure (SMILES): COc1ccc(/C=C/C2=[O+][B-](F)(F)OC(/C=C/c3ccc(OC)c4ccccc34)=C2c2ccccc2)c2ccccc12
fluorescence lifetime (in CC#N): 0.63 ns
fluorescence lifetime (in CC(C)=O): 1.02 ns
fluorescence lifetime (in CCOC(C)=O): 1.28 ns
fluorescence lifetime (in CCOCC): 1.12 ns
fluorescence lifetime (in ClC(Cl)(Cl)Cl): 0.94 ns
fluorescence lifetime (in ClCCl): 1.91 ns

fluorescence lifetime (in C1COCCO1): 0.07 ns
fluorescence lifetime (in CC#N): 0.27 ns
fluorescence lifetime (in CCO): 0.21 ns
fluorescence lifetime (in OCC(F)(F)F): 0.72 ns
Structure (SMILES): Cc1cc(=O)oc2c1cc(Cl)c1occ(C)c12

Structure (SMILES): C(=C\c1cc(/C=C/c2ccc(-n3c4ccccc4c4ccccc43)cc2)cc(/C=C/c2ccc(-n3c4ccccc4c4ccccc43)cc2)c1)/c1ccc(-n2c3ccccc3c3ccccc32)cc1
fluorescence lifetime (in C1CCOC1): 4.56 ns
fluorescence lifetime (in CC#N): 3.84 ns
fluorescence lifetime (in Cc1ccccc1): 3.41 ns
fluorescence lifetime (in ClCCl): 3.39 ns

fluorescence lifetime (in ClCCl): 6 ns
Structure (SMILES): CC(C)(C)c1ccc2c(c1)sc1[n+]2[B-](F)(F)n2c(c3cccc4cccc2c43)=C1C#N

Structure (SMILES): Cc1cc(-c2ccc(-n3c4ccccc4c4ccccc43)cc2)nc(-c2ccc(-n3c4ccccc4c4ccccc43)cc2)n1
fluorescence lifetime (in C1CCOC1): 4.26 ns
fluorescence lifetime (in CN(C)C=O): 7.57 ns
fluorescence lifetime (in Cc1ccccc1): 2.44 ns
fluorescence lifetime (in ClC(Cl)Cl): 4.11 ns

Structure (SMILES): COc1ccc(C2=CC(c3ccc4cc(N(C)C)ccc4c3)=[O+][B-](F)(F)O2)cc1
fluorescence lifetime (in C1CCOC1): 2.68 ns
fluorescence lifetime (in CC#N): 0.42 ns
fluorescence lifetime (in CC(C)=O): 0.72 ns
fluorescence lifetime (in CS(C)=O): 0.54 ns
fluorescence lifetime (in Cc1ccccc1): 2.96 ns
fluorescence lifetime (in ClC(Cl)Cl): 3.54 ns
fluorescence lifetime (in ClCCl): 2.71 ns

Structure (SMILES): CCCCC(CC)CN1C(=O)C2=C(c3ccc(-c4ccc(C5=C6C(C)=CC(C)=[N+]6[B-](F)(F)n6c(C)cc(C)c65)cc4)s3)N(CC(CC)CCCC)C(=O)C2=C1c1cccs1 (stereo not given)
fluorescence lifetime (in Cc1ccccc1): 3.87 ns

fluorescence lifetime (in C1CCCCC1): 3.2 ns
fluorescence lifetime (in CC#N): 4.2 ns
fluorescence lifetime (in c1ccccc1): 9.3 ns
Structure (SMILES): Nc1cccc2c1-c1ccccc1C2=O
